Data from publication PMC3916804, “The development and validation of an LC-MS/MS method for the determination of a new anti-malarial compound (TK900D) in human whole blood and its application to pharmacokinetic studies in mice” (Malaria Journal, 2014).
Like-named read-outs stand apart in the source and are kept apart here. One block for each molecule: values may come before it.

Experiments:
[1] = system: P. falciparum CQ-resistant (K1) strain; design: method as in PMID 24900630; settings: read-out: in vitro antiplasmodial activity IC50; cited from earlier work
[2] = system: P. falciparum CQ-resistant (W2) strain; design: method as in PMID 24900630; settings: read-out: in vitro antiplasmodial activity IC50; cited from earlier work
[3] = system: P. falciparum CQ-sensitive (3D7) strain; design: method as in PMID 24900630; settings: read-out: in vitro antiplasmodial activity IC50; cited from earlier work
[4] = long-term stability in human whole blood; type: in vitro ADME; settings: for Long term stability, % Bias from nominal: human whole blood, ~ -80°C, 181 days, n = 6
Procedure: For the determination of long-term stability in human whole blood, TK900D spiked quality control samples at 800.0 ng/ml and 10.01 ng/ml were stored at ~ -80°C for 181 days (long enough to cover the time period elapsed from the first day of sample collection to the final sample analysis). These samples were thawed on the day of testing and run together with freshly prepared calibration standards and quality controls and the values were calculated from the resulting calibration curve obtained from the calibration standards.

[5] = pharmacokinetic evaluation in mice (oral and IV), blood levels by LC-MS/MS; type: in vivo, C57/BL6 mice; settings: for Blood CL total / Vd / Vss / AUC 0 - ∞ / Apparent t 1/2 / T max / Bioavailability / Cmax: male C57/BL6 mice; for AUC 0 - ∞ / Apparent t 1/2 / Cmax: blood; for Apparent t 1/2: mean of 5; for half-life: male, C57/BL6, mouse, whole blood, mice, read-out: apparent half-life, range
Procedure: Snapshot pharmacokinetic evaluations were performed on a number of analogues from the TK-series anti-malarial compounds. […] The test compound dissolved in a 20 mM Sodium acetate buffer (pH 4.0): Ethanol: PEG400 (70:5:25; v/v/) drug vehicle was administered orally to healthy C57/BL6 mice (n = 5) at doses of 40 and 20 mg/kg, and intravenously at doses of 5 and 2.5 mg/kg. Blood samples were collected at predetermined sampling times (except for the first sampling time, i.e. 5 minutes after dosing for the IV group and 10 minutes for the oral group, the sampling times were 0.5,1, 3, 5, 7, 12 and 24 h after dosing) by bleeding the tip of the tail, and analysed using a validated LC-MS/MS assay. Back-calculated concentrations of the blood samples were obtained from a standard regression curve with nine concentration levels (3.910 to 1000 ng/ml). Concentration vs. time profiles were constructed and the data analysed with Summit PK software to obtain the pharmacokinetic parameters.

[6] = short-term (on-bench) stability in blood; type: in vitro ADME, human; settings: for On bench stability, % Bias from nominal: blood, room temperature on bench, n = 6
Procedure: […] The samples were assayed in one of the validation batches. The measured concentrations were compared with the nominal concentrations of these samples.

[7] = stock solution stability in methanol; type: physicochemical; settings: for stock solution stability in methanol, % Reference (peak area vs fresh): 100.0 μg/ml in methanol, eight days, n = 6; for stability in methanol (in words): at room temperature, 5°C, and -20°C
Procedure: The stability of TK900D and TK900E in methanol was evaluated at room temperature, ~ 5°C and ~ -20°C. Stock solutions with concentrations of 100.0 μg/ml of TK900D and the internal standard were prepared in methanol. Three aliquots of each of the stock solutions were kept at room temperature, ~ 5 °C, and ~ –20°C, respectively, for eight days. After diluting the stored stock solutions in injection solvent to a 100.0 ng/ml, the stability of TK900D and that of the internal standard were assessed by comparing the peak areas obtained from the stored stock solutions with peak areas of the freshly prepared stock solutions. For stock solution results to be acceptable the percentage reference value should not exceed 15%.

[8] = freeze and thaw stability in blood; type: in vitro ADME, human; settings: for Freeze and thaw stability, % Bias from nominal: blood, three freeze-thaw cycles from ~ -80°C, n = 6
Procedure: Quality control blood samples at high and low concentration, 800.0 and 10.01 ng/ml respectively, of TK900D stored frozen at ~ -80°C were allowed to thaw completely unassisted at room temperature and then refrozen for 12 to 24 hours. After three such freeze-thaw cycles the samples were assayed in the third validation run and the measured concentrations were compared with the nominal concentrations of these samples.

[9] = on-instrument stability (OIS) of extracted samples; type: physicochemical; settings: for OIS (on-instrument stability), % Bias: extracted samples on instrument, n = 6; for on-instrument stability (in words): ~ 8.2 h on-instrument
Procedure: In order to assess the stability of the analytes while awaiting injection on instrument, on-instrument stability (OIS) was assessed for the period of time that the extracted samples were expected to stay on-instrument during the batch run-time (~ 9 h). Quality control samples at high and low concentrations (800.0 ng/ml and 10.01 ng/ml, respectively), were extracted in replicates of six and injected at the beginning and end of the run (i.e. six QC-high and six QC-low at the beginning of the run and another set of six QC-high and QC-low at the end of the run bracketed with quality control samples). The mean measured concentration of the OIS-samples (injected at the end of the run) and OIS-reference samples (injected at the beginning of the run) were compared: in order to be acceptable, their percentage difference should be within ± 15%.

CHO mammalian cell line = system: CHO mammalian cell line; design: method as in PMID 24900630; settings: MTT assay, read-out: cytotoxicity IC50; cited from earlier work
[10] = other: oral and intravenous, over all oral and IV dose groups
[11] = as summarised in abstract (matches oral 40 and 20 mg/kg groups)

SMILES: CCN(CC)CCCC(C)Nc1ccnc2cc(Cl)ccc12 (stereo not drawn) [CQ, Chloroquine, reference compound]
IC50 [1]: 36 nM
IC50 [2]: 59.1 nM
IC50 [3]: 0.2 nM

stability in human whole blood (in words) ([4]; 181 days stored at -80°C): stable
Long term stability, % Bias from nominal ([4]; High (800.0 ng/ml)): 0.7%
Long term stability, % Bias from nominal ([4]; Low (10.01 ng/ml)): -4.0%
Blood CL total ([5]; IV 2.5 mg/kg): 48.9 mL/min/kg
Vd ([5]; IV 2.5 mg/kg): 7.9 L/kg
Vss ([5]; IV 2.5 mg/kg): 8.7 L/kg
AUC 0 - ∞ ([5]; IV 2.5 mg/kg): 104 µmol·min/L
Apparent t 1/2 ([5]; IV 2.5 mg/kg): 1.9 h
Blood CL total ([5]; IV 5.0 mg/kg): 44.8 mL/min/kg
Vd ([5]; IV 5.0 mg/kg): 8.9 L/kg
Vss ([5]; IV 5.0 mg/kg): 9.1 L/kg
AUC 0 - ∞ ([5]; IV 5.0 mg/kg): 222 µmol·min/L
Apparent t 1/2 ([5]; IV 5.0 mg/kg): 2.3 h
T max ([5]; oral 20 mg/kg): 1.4 h
Bioavailability ([5]; oral 20 mg/kg vs IV 2.5 mg/kg): 30.8%
AUC 0 - ∞ ([5]; oral 20 mg/kg): 256 µmol·min/L
Cmax ([5]; oral 20 mg/kg): 540 nM
Apparent t 1/2 ([5]; oral 20 mg/kg): 6.0 h
T max ([5]; oral 40 mg/kg): 1.4 h
Bioavailability ([5]; oral 40 mg/kg vs IV 5 mg/kg): 16.2%
AUC 0 - ∞ ([5]; oral 40 mg/kg): 287 µmol·min/L
Cmax ([5]; oral 40 mg/kg): 790 nM
Apparent t 1/2 ([5]; oral 40 mg/kg): 3.9 h
half-life [5, 10]: 2 to 6 h
half-life [5, 11]: 4 to 6 h
On bench stability, % Bias from nominal ([6]; High (800.0 ng/ml)): 8.3%
On bench stability, % Bias from nominal ([6]; Low (10.01 ng/ml)): 5.2%
on-bench stability (in words) ([6]; ~ 12 h on-bench at room temperature): stable
stock solution stability in methanol, % Reference (peak area vs fresh) ([7]; room temperature): 106.9%
stock solution stability in methanol, % Reference (peak area vs fresh) ([7]; ~ 5°C): 105.2%
stock solution stability in methanol, % Reference (peak area vs fresh) ([7]; ~ -20°C): 100.3%
stability in methanol (in words) [7]: stable
freeze-thaw stability (in words) ([8]; at least three freeze-thaw cycles): stable
Freeze and thaw stability, % Bias from nominal ([8]; High (800.0 ng/ml)): 6.6%
Freeze and thaw stability, % Bias from nominal ([8]; Low (10.01 ng/ml)): 8.6%
OIS (on-instrument stability), % Bias ([9]; High (800.0 ng/ml)): 0.9%
OIS (on-instrument stability), % Bias ([9]; Low (10.01 ng/ml)): 4.5%
on-instrument stability (in words) [9]: stable
SMILES: CC(C)(C)n1nnnc1C(NCCNc1ccnc2cc(Cl)ccc12)c1ccc(Cl)c(Cl)c1 (stereo not drawn) [TK900D]
IC50 [1]: 8.2 nM
IC50 [2]: 30.5 nM
IC50 [3]: 0.4 nM
IC50 (CHO mammalian cell line): 10500 nM

Blood CL total ([5]; IV 2.5 mg/kg): 51.2 mL/min/kg
Vd ([5]; IV 2.5 mg/kg): 7.0 L/kg
Vss ([5]; IV 2.5 mg/kg): 6.5 L/kg
AUC 0 - ∞ ([5]; IV 2.5 mg/kg): 107 µmol·min/L
Apparent t 1/2 ([5]; IV 2.5 mg/kg): 1.6 h
Blood CL total ([5]; IV 5.0 mg/kg): 51.0 mL/min/kg
Vd ([5]; IV 5.0 mg/kg): 10.3 L/kg
Vss ([5]; IV 5.0 mg/kg): 12.6 L/kg
AUC 0 - ∞ ([5]; IV 5.0 mg/kg): 221 µmol·min/L
Apparent t 1/2 ([5]; IV 5.0 mg/kg): 2.5 h
T max ([5]; oral 20 mg/kg): 0.8 h
Bioavailability ([5]; oral 20 mg/kg vs IV 2.5 mg/kg): 25.9%
AUC 0 - ∞ ([5]; oral 20 mg/kg): 222 µmol·min/L
Cmax ([5]; oral 20 mg/kg): 940 nM
Apparent t 1/2 ([5]; oral 20 mg/kg): 3.6 h
T max ([5]; oral 40 mg/kg): 1.0 h
Bioavailability ([5]; oral 40 mg/kg vs IV 5 mg/kg): 30.6%
AUC 0 - ∞ ([5]; oral 40 mg/kg): 541 µmol·min/L
Cmax ([5]; oral 40 mg/kg): 2810 nM
Apparent t 1/2 ([5]; oral 40 mg/kg): 4.0 h
half-life [5, 10]: 1.6 to 4 h
half-life [5, 11]: 3.6 to 4 h
stock solution stability in methanol, % Reference (peak area vs fresh) ([7]; room temperature): 102.8%
stock solution stability in methanol, % Reference (peak area vs fresh) ([7]; ~ 5°C): 103.5%
stock solution stability in methanol, % Reference (peak area vs fresh) ([7]; ~ -20°C): 98.2%
stability in methanol (in words) [7]: stable
on-instrument stability (in words) [9]: stable
SMILES: CC(C)(C)n1nnnc1C(NCCNc1ccnc2cc(Cl)ccc12)c1ccc(Cl)cc1 (stereo not drawn) [TK900E]
IC50 [1]: 1 nM
IC50 [2]: 25.5 nM
IC50 [3]: 2 nM
